{
  "source": "patent US20260226056A1",
  "about": "“SUBSTITUTED 1H-PYRAZOLE-4-CARBOXAMIDES AS SARM1 INHIBITORS” (DISARM THERAPEUTICS, INC., priority 2023, published 2026)",
  "biological_target": "T1, hSARM1 (Homo sapiens, UniProt Q6SZW1)",
  "T1 construct": "This assay makes use of full length SARM1, which encompasses the ARM, SAM and TIR domains; made in house; host or cells: NRK1-HEK293T cells (transient transfection; cleared lysate used as enzyme)",
  "T1 sequence (Q6SZW1 28-724)": "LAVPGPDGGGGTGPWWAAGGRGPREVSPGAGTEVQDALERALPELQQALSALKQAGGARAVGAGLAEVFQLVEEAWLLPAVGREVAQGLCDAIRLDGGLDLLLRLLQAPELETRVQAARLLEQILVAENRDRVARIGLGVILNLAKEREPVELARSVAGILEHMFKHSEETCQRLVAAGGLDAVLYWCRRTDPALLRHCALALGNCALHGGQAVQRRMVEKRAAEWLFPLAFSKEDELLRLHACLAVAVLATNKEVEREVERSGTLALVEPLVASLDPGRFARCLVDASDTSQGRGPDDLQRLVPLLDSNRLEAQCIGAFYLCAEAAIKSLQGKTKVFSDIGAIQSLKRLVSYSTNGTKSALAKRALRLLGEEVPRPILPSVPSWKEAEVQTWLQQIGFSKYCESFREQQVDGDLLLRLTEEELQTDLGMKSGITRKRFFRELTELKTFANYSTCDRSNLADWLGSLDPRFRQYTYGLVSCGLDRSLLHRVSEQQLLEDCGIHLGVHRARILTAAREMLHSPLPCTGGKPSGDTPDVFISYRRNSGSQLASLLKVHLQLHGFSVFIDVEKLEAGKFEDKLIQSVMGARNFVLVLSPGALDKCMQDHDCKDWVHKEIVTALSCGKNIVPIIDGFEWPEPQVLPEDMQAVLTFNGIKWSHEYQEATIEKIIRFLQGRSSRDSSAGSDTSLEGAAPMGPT",
  "assay": "ARM-SAM-TIR SARM1 IC50 Assay (NADase activity, NAD+ cleavage, RapidFire MS)",
  "assay_type": "biochemical",
  "conditions": "ARM-SAM-TIR lysate 5 μg/mL, 2 hrs. pre-incubation with compound, 5 μM NAD+, 2 hrs. incubation",
  "description": "This describes an assay of ARM-SAM-TIR NADase activity and use of this assay to measure the efficacy of compounds of the present invention to block SARM1 mediated NAD+ cleavage. This assay was optimized in such a way as to characterize the efficacy of the compounds of the present invention to inhibit SARM1 activity and to calculate an IC50 value for each compound. This assay makes use of full length SARM1, which encompasses the ARM, SAM and TIR domains.\nNRK1-HEK293T cells were seeded onto 150 cm^2 plates at 20×10^6 cells per plate. The next day, the cells were transfected with 15 μg ARM-SAM-TIR expression plasmid (SEQ ID NO: 1 as disclosed in WO 2019/236879, Pages 77-81; Paragraph) [0310]).\nThe cultures were supplemented with 1 mM NR at time of transfection to minimize toxicity from ARM-SAM-TIR overexpression. Forty-eight hours after transfection, cells were harvested, pelleted by centrifugation at 1,000 rpm (Sorvall ST 16R centrifuge, Thermo Fisher), and washed once with cold PBS (0.01 M phosphate buffered saline NaCl 0.138 M; KCl 0.0027 M; pH 7.4). The cells were resuspended in PBS with protease inhibitors (Complete™ protease inhibitor cocktail, Roche product #11873580001) and cell lysates were prepared by sonication (Branson Sonifer 450, output=3, 20 episodes of stroke). The lysates were centrifuged (12,000×g for 10 min at 4° C.) to remove cell debris and the supernatants (containing ARM-SAM-TIR protein) were stored at −80° C. for later use in the in vitro ARM-SAM-TIR NADase assay (see below). Protein concentration was determined by the Bicinchoninic (BCA) method and used to normalize lysate concentrations.\nThe enzymatic assay was performed in a 384-well polypropylene plate in Dulbecco's PBS buffer in a final assay volume of 20 μL. ARM-SAM-TIR lysate with a final concentration of 5 μg/mL was pre-incubated with the respective compound at 1% DMSO final assay concentration over 2 hrs. at room temperature. The reaction was initiated by addition of 5 μM final assay concentration of NAD+ as substrate. After a 2 hrs. ambient temperature incubation, the reaction was terminated with 40 μL of stop solution of 7.5% trichloroacetic acid in acetonitrile. The NAD+ and ADPR concentrations were analyzed by a RapidFire High Throughput Mass Spectrometry System (Agilent Technologies, Santa Clara, CA) using an API4000 triple quadrupole mass spectrometer (AB Sciex Framingham, MA).\nCompounds having an activity designated as “A” provided an IC50<50 nM; compounds having an activity designated as “B” provided an IC50 51-100 nM; compounds having an activity designated as “C” provided an IC50 101-500 nM; compounds having an activity designated as “D” provided an IC50 501-1000 nM; compounds having an activity designated as “E” provided an IC50>1000 nM.",
  "data": [
    {"smiles": "O=C1NCN(C(=O)CCc2ccc(Cl)nc2)c2[nH]nc(-c3ccncc3)c21", "note": "[Example 28, 7-(3-(6-Chloropyridin-3-yl)propanoyl)-3-(pyridin-4-yl)-1,5,6,7-tetrahydro-4H-pyrazolo[3,4-d]pyrimidin-4-one]", "values": [
      {"measurement": "IC50", "value": "> 1000", "unit": "nM"}
    ]}
  ]
}
